The values below come from patent publication US8541457B2, “Aminothiazole derivatives as human stearoyl-CoA desaturase inhibitors” (Xenon Pharmaceuticals Inc., priority 2005, dated 2013).

`Cc1nc(NC(=O)c2ccncc2)sc1C(=O)NCc1ccccc1` [Example 1, N-(5-Benzylcarbamoyl-4-methylthiazol-2-yl)isonicotinamide]: the melting point (usually the temperature of the solid-liquid transition) lay within 171 to 172 °C.

The compound `CCC(=O)Nc1nc(C)c(C(=O)NCc2ccccc2)s1` [Example 2.1, 4-Methyl-2-propionylaminothiazole-5-carboxylic Acid Benzylamide] came in with a melting point of 175 to 176 °C.

For `Cc1nc(NC(=O)C2CC2)sc1C(=O)NCc1ccccc1` [Example 2.2, 2-(Cyclopropanecarbonylamino)-4-methylthiazole-5-carboxylic Acid Benzylamide], the melting point fell in the range of 241 to 243 °C.

`Cc1nc(NC(=O)c2cccc(Cl)c2)sc1C(=O)NCc1ccccc1` [Example 2.19, 2-(3-Chlorobenzoylamino)-4-methylthiazole-5-carboxylic Acid Benzylamide]: the melting point is 178 to 179 °C.

With `Cc1nc(NC(=O)c2ccc(F)cc2Cl)sc1C(=O)NCc1ccccc1` [Example 2.20, 2-(2-Chloro-4-fluorobenzoylamino)-4-methylthiazole-5-carboxylic Acid Benzylamide], the melting point lay in the range of 95 to 96 °C.

Take `Cc1nc(NC(=O)c2ccccc2OC(F)(F)F)sc1C(=O)NCc1ccccc1` [Example 2.21, 4-Methyl-2-(2-trifluoromethoxybenzoylamino)thiazole-5-carboxylic Acid Benzylamide]: the melting point lay in the range of 140 to 141 °C.

`Cc1nc(NC(=O)c2cccc(C(F)(F)F)c2)sc1C(=O)NCc1ccccc1` [Example 2.22, 4-Methyl-2-(3-trifluoromethylbenzoylamino)thiazole-5-carboxylic Acid Benzylamide] registered a melting point of 195 to 196 °C.

The compound `Cc1nc(NC(=O)c2cccc3ccccc23)sc1C(=O)NCc1ccccc1` [Example 2.23, 4-Methyl-2-[(naphthalene-1-carbonyl)amino]thiazole-5-carboxylic Acid Benzylamide] registered a melting point of 99 to 101 °C.

Compound `Cc1nc(NC(=O)c2cc(Cl)cc(Cl)c2)sc1C(=O)NCc1ccccc1` [Example 2.24, 2-(3,5-Dichlorobenzoylamino)-4-methylthiazole-5-carboxylic Acid Benzylamide] gave a melting point of 104 to 105 °C.

With `Cc1nc(NC(=O)c2ccc(C#N)cc2)sc1C(=O)NCc1ccccc1` [Example 2.25, 2-(4-Cyanobenzoylamino)-4-methylthiazole-5-carboxylic Acid Benzylamide], the melting point was 256 to 258 °C.

`Cc1nc(NC(=O)c2cccc(C#N)c2)sc1C(=O)NCc1ccccc1` [Example 2.26, 2-(3-Cyanobenzoylamino)-4-methylthiazole-5-carboxylic Acid Benzylamide] gave a melting point of 207 to 208 °C.

`Cc1nc(NC(=O)c2cccnc2)sc1C(=O)NCc1ccccc1` [Example 2.27, N-(5-Benzylcarbamoyl-4-methylthiazol-2-yl)nicotinamide] returned a melting point of 224 to 226 °C.

As to `Cc1nc(NC(=O)c2cccc(OC(F)(F)F)c2)sc1C(=O)NCc1ccccc1` [Example 2.28, 4-Methyl-2-(3-trifluoromethoxybenzoylamino)thiazole-5-carboxylic Acid Benzylamide], the melting point fell in the range of 230 to 232 °C.

In turn, `Cc1nc(NC(=O)c2cc(F)cc(F)c2)sc1C(=O)NCc1ccccc1` [Example 2.29, 2-(3,5-Difluorobenzoylamino)-4-methylthiazole-5-carboxylic Acid Benzylamide] displayed a melting point of 84 to 86 °C.

In turn, `Cc1nc(NC(=O)c2cc(Cl)ccc2F)sc1C(=O)NCc1ccccc1` [Example 2.30, 2-(5-Chloro-2-fluorobenzoylamino)-4-methylthiazole-5-carboxylic Acid Benzylamide] showed a melting point of 175 to 178 °C.

Regarding `Cc1nc(NC(=O)c2cccc(F)c2)sc1C(=O)NCc1ccccc1` [Example 2.31, 2-(3-Fluorobenzoylamino)-4-methylthiazole-5-carboxylic Acid Benzylamide], the melting point lay in the range of 162 to 165 °C.

Turning to `Cc1nc(NC(=O)c2ccc(OC(F)(F)F)cc2)sc1C(=O)NCc1ccccc1` [Example 2.32, 4-Methyl-2-(4-trifluoromethoxybenzoylamino)thiazole-5-carboxylic Acid Benzylamide], the melting point lay within 168 to 170 °C.

`COc1ccc(C(=O)Nc2nc(C)c(C(=O)NCc3ccccc3)s2)cc1` [Example 2.33, 2-(4-Methoxybenzoylamino)-4-methylthiazole-5-carboxylic Acid Benzylamide] yielded a melting point of 203 to 204 °C.

The compound `COc1cccc(C(=O)Nc2nc(C)c(C(=O)NCc3ccccc3)s2)c1` [Example 2.34, 2-(3-Methoxybenzoylamino)-4-methylthiazole-5-carboxylic Acid Benzylamide] came in with a melting point of 75 to 77 °C.

In turn, `Cc1nc(NC(=O)c2cccc(S(C)(=O)=O)c2)sc1C(=O)NCc1ccccc1` [Example 2.35, 2-(3-Methanesulfonylbenzoylamino)-4-methylthiazole-5-carboxylic Acid Benzylamide] came in with a melting point of 111 to 113 °C.

`Cc1nc(NC(=O)c2ccccc2S(C)(=O)=O)sc1C(=O)NCc1ccccc1` [Example 2.36, 2-(2-Methanesulfonylbenzoylamino)-4-methylthiazole-5-carboxylic Acid Benzylamide]: the melting point lay in the range of 239 to 242 °C.

Compound `Cc1nc(NC(=O)c2ccc(Cl)c(Cl)c2)sc1C(=O)NCc1ccccc1` [Example 2.37, 2-(3,4-Dichlorobenzoylamino)-4-methylthiazole-5-carboxylic Acid Benzylamide] returned a melting point of 212 to 214 °C.

Turning to `Cc1nc(NC(=O)c2ccc(S(C)(=O)=O)cc2)sc1C(=O)NCc1ccccc1` [Example 2.38, 2-(4-Methanesulfonylbenzoylamino)-4-methylthiazole-5-carboxylic Acid Benzylamide], the melting point fell in the range of 262 to 265 °C.

For `Cc1nc(NC(=O)Cc2ccccc2)sc1C(=O)NCc1ccccc1` [Example 2.39, 4-Methyl-2-phenylacetylaminothiazole-5-carboxylic Acid Benzylamide], the melting point fell in the range of 63 to 65 °C.

As for `Cc1nc(NC(=O)CCc2ccccc2)sc1C(=O)NCc1ccccc1` [Example 2.40, 4-Methyl-2-(3-phenylpropionylamino)thiazole-5-carboxylic Acid Benzylamide], the melting point lay within 63 to 65 °C.

The compound `Cc1nc(NC(=O)CC2CC2)sc1C(=O)NCc1ccccc1` [Example 2.41, 2-(2-Cyclopropylacetylamino)-4-methylthiazole-5-carboxylic Acid Benzylamide] came in with a melting point of 136 to 139 °C.

Regarding `Cc1ccc(S(=O)(=O)Nc2nc(C)c(C(=O)NCc3ccccc3)s2)cc1` [Example 2.42, 4-Methyl-2-(toluene-4-sulfonylamino)thiazole-5-carboxylic Acid Benzylamide], the melting point lay within 242 to 245 °C.

`CCC(NC(=O)c1sc(NC(=O)c2ccccc2)nc1C)c1ccccc1` (centres unmarked) [Example 3, 2-Benzoylamino-4-methylthiazole-5-carboxylic Acid (1-Phenylpropyl)amide] displayed a melting point of 87 to 89 °C.

`O=C(Nc1nc(Cl)c(C(=O)NCc2ccccc2)s1)c1ccccc1` [Example 3.1, 2-Benzoylamino-4-chlorothiazole-5-carboxylic Acid Benzylamide]: the melting point was 247 to 249 °C.

In the case of `Cc1nc(NC(=O)Nc2ccccc2)sc1C(=O)NCc1ccccc1` [Example 4, 4-Methyl-2-(3-phenylureido)thiazole-5-carboxylic Acid Benzylamide], the melting point is above 300 °C.

As for `Cc1nc(NC(=O)Nc2ccc(F)cc2)sc1C(=O)NCc1ccccc1` [Example 4.1, 2-[3-(4-Fluorophenyl)ureido]-4-methylthiazole-5-carboxylic Acid Benzylamide], the melting point was above 300 °C.

Regarding `Cc1nc(NC(=O)Nc2ccc(Cl)cc2)sc1C(=O)NCc1ccccc1` [Example 4.2, 2-[3-(4-Chlorophenyl)ureido]-4-methylthiazole-5-carboxylic Acid Benzylamide], the melting point is above 300 °C.

`Cc1nc(NC(=O)c2ccc(-c3nn[nH]n3)cc2)sc1C(=O)NCc1ccccc1` [Example 6, 4-Methyl-2-[4-(2H-tetrazol-5-yl)benzoylamino]thiazole-5-carboxylic Acid Benzylamide] had a melting point above 300 °C.

In turn, `Cc1nc(NC(=O)c2ccccc2)sc1C(=O)NCC1CC1` [Example 7, 2-Benzoylamino-4-methylthiazole-5-carboxylic Acid Cyclopropylmethylamide] displayed a melting point of 163 to 166 °C.

For the compound `Cc1nc(NC(=O)c2ccccc2)sc1C(=O)NCc1cccc(Cl)c1` [Example 7.1, 2-Benzoylamino-4-methylthiazole-5-carboxylic Acid 3-Chlorobenzylamide], the melting point was 198 to 199 °C.

The compound `Cc1nc(NC(=O)c2ccccc2)sc1C(=O)NCc1cccc(F)c1` [Example 7.2, 2-Benzoylamino-4-methylthiazole-5-carboxylic Acid 3-Fluorobenzylamide] displayed a melting point of 216 to 217 °C.

With `Cc1nc(NC(=O)c2ccccc2)sc1C(=O)NCc1ccccc1F` [Example 7.3, 2-Benzoylamino-4-methylthiazole-5-carboxylic Acid 2-Fluorobenzylamide], the melting point fell in the range of 180 to 183 °C.

The compound `Cc1nc(NC(=O)c2ccccc2)sc1C(=O)NCc1ccccc1Cl` [Example 7.4, 2-Benzoylamino-4-methylthiazole-5-carboxylic acid 2-chlorobenzylamide] came in with a melting point of 191 to 193 °C.

`Cc1nc(NC(=O)c2ccccc2)sc1C(=O)NCc1ccccc1C(F)(F)F` [Example 7.5, 2-Benzoylamino-4-methylthiazole-5-carboxylic Acid 2-Trifluoromethylbenzylamide] gave a melting point of 198 to 199 °C.

With `Cc1nc(NC(=O)c2ccccc2)sc1C(=O)NCc1ccc(F)cc1` [Example 7.6, 2-Benzoylamino-4-methylthiazole-5-carboxylic Acid 4-Fluorobenzylamide], the melting point was in the range of 206 to 208 °C.

`Cc1nc(NCc2ccccc2)sc1C(=O)NCc1ccccc1` [Example 8, 2-Benzylamino-4-methylthiazole-5-carboxylic Acid Benzylamide] registered a melting point of 169 to 172 °C.
